One assay deals with RhoC (Homo sapiens, UniProt P08134). The assay is described as follows: [3H]GDP displacement of 6-TGDP from .NO2-treated 6-TGDP-loaded GTPase with/without DTT (FIG. 13B). The assay is classed as binding. Set-up: made in house; host or cells: E. coli. On the procedure:
(§1) FIG. 13. Guanine nucleotide exchange of small GTPases with 6-TGDP. (A) To monitor 6-TGDP-mediated GTPase GDP dissociation, [^3H]GDP-loaded GTPase (1 μM) was incubated with 6-TGDP (0-2000 μM) for 1 h. (B) To monitor GTPase 6-TGDP dissociation by GDP (0-2000 μM) in the presence and absence of dithiothreitol (DTT), 6-TGDP-loaded GTPase (˜1 μM) was treated with .NO2 (˜3 μM) under anaerobic conditions and was incubated with various concentrations of [^3H]GDP (0-2000 μM) in the presence and absence of DTT (10 mM) for 1 h. For all assays, aliquots were withdrawn and spotted onto nitrocellulose filters. The filters were then washed three times with an assay buffer, and radioactivity was determined using a Beckman-Coulter scintillation counter. The resultant radioactivity (dpm) values associated with GTPase-bound [^3H]GDP were converted into the fraction of mol nucleotide per mol total GTPase. The data presented represent mean and standard error values from triplicate measurements. The apparent dissociation constants (appKD values) of GTPase 6-TGDP association ([^3H]GDP dissociation, A); and 6-TGDP dissociation ([3H]GDP association, B) were obtained by fitting the data to a simple dissociation and association, respectively. (A) The ^appKD values of Ras, RhoC, RhoA and Rac1 for 6-TGDP, are, respectively, 2300, 230, 224, and 245 μM [6-TGDP]. (B) The appKD values of RhoC with and without DTT are, respectively, 560, and 1000 μM [[^3H]GDP], whereas the ^appKD values of Ras with and without DTT are 530, and 520 μM [[^3H]GDP], respectively. The standard errors of each ^appKD value are less than 10% of their given values, and regression values associated with the fit were r^2>0.9560.
(§2) The ^appKD [3H]GDP was converted into ^trueKD [3H]GDP by using a compensation equation, ^trueKD [3H]GDP=^appKD [3H]GDP/(1+[6-TGDP]/^trueKD GDP) (Segel, I. H. (1993) Enzyme kinetics, A Wiley-Interscience publication, New York) (see above)). The calculated ^trueKD [3H]GDP values of RhoC in the presence and absence of DTT were estimated to be 516 μM and 923 μM, respectively. […] Treatment with DTT, a reducing agent, disrupts the disulfide bond between RhoC and 6-TGDP, liberating 6-TGDP from RhoC, and thereby permitting [^3H]GDP to bind to RhoC.

A further assay concerns the target Ras (Homo sapiens, UniProt P01112). The description is as above. The assay is classed as binding. On the procedure: as §1, §2
For the next assay, the target named is T1, RhoA (Homo sapiens, UniProt P61586).
T1 construct: made in house; host or cells: E. coli
T1 sequence (P61586 whole entry, species assumed): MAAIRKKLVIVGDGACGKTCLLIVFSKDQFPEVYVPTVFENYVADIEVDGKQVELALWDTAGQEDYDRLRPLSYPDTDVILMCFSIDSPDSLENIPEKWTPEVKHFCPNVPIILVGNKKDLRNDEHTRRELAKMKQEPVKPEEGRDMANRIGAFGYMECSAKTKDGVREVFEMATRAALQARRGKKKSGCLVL
Conditions: known value (Morgan et al.); read-out: trueKD for GDP; cited from earlier work.

A further assay deals with RhoC C20S (Homo sapiens, UniProt P08134, C20S). The assay is described as follows: RhoC expression (Western) and RhoC activity assay in cells. Conditions: HME-C20S RhoC cells, 6-TG three days. The assay is classed as cell-based. Also noted: expressed in transfected cells; host or cells: human mammary epithelial (HME) cells. As for the experimental part: (§3) FIG. 14. Determination of cell invasiveness in the presence and absence of thiopurines and/or redox agents. […] Western blot analysis representing the total expression of RhoC in these cells also is shown. (B) Experimental procedures for the determination of the time-dependent motility of cells using the QCM Cell Invasion Assay kit in the presence and absence of 6-TG and DETA/NO are described elsewhere herein.
Sequence of RhoC C20S (P08134 whole entry C20S): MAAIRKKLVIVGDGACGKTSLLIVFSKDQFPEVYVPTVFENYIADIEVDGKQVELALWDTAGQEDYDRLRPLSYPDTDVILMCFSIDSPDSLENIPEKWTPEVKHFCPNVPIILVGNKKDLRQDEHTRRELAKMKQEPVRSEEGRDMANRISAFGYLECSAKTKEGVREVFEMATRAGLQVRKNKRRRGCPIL
Cells were lysed in an extraction buffer containing 50 mM NaCl, 5 mM MgCl2, 1 mM ethylenediaminetetraacetic acid (EDTA), 0.1 mM diethylenetriaminepentaacetic acid (DTPA), and 0.1% NP40 in 150 mM TrisHCl (pH 8.0). The content of […] RhoC in cells then was determined by using Western analysis that relies on a monoclonal anti-RhoC antibody (Biocompare, South San Francisco, Calif.). To determine RhoC activity, the colorimetric RhoA activation assay Biochem Kit (Cytoskeleton, Denver, Colo.) was used essentially as described in the previous study (Hall et al. Neoplasia 10, 797-803 (2008)) except that the RhoC specific antibody (vide supra), instead of the RhoA antibody included in the assay kit, was used for this analysis.

The test system of another assay is HME-C20S RhoC cells. The assay is described as follows: Matrigel invasion (cell motility) assay. The assay is classed as cell-based, human. Conditions: FIG. 14A.
Excerpt: as §3
(§4) The top chamber of a Transwell filter (6.5 mm with 8 μm pores, Costar; Corning, N.Y.) was coated with a 10 μL aliquot of 10 mg/mL Matrigel, and the lower chamber of the Transwell was filled with either serum-free or serum-containing media. Sample cells were prepared to resuspend cells in a serum-free medium with 0.1% BSA at a concentration of 4×10^5 cells/mL. […] The Transwell filters were fixed with methanol, stained with haematoxylin and eosin, and cells in the serum-containing samples were counted. The number of cells that had invaded the serum-free, medium-containing lower chambers was used as a control background.

Another assay deals with SUM149 cells. The assay is described as follows: Matrigel invasion (cell motility) assay. The assay is classed as cell-based, human. Conditions: FIG. 14A.
Excerpt: as §3, §4

Setting [1] is: absence of DTT, calculated by compensation equation, read-out: trueKD [3H]GDP.
The mark [2] stands for this setting: presence of DTT, calculated by compensation equation, read-out: trueKD [3H]GDP.
[3] abbreviates: with DTT 10 mM, 6-TGDP-loaded GTPase ~1 μM treated with .NO2 ~3 μM, anaerobic, 1 h, read-out: appKD for [3H]GDP (6-TGDP dissociation).
The mark [4] stands for this setting: without DTT, 6-TGDP-loaded GTPase ~1 μM treated with .NO2 ~3 μM, anaerobic, 1 h, read-out: appKD for [3H]GDP (6-TGDP dissociation).

Molecules are shown by their SMILES. Read-outs that look alike come from different tables or passages of the source.

Sequence of RhoC (P08134 whole entry): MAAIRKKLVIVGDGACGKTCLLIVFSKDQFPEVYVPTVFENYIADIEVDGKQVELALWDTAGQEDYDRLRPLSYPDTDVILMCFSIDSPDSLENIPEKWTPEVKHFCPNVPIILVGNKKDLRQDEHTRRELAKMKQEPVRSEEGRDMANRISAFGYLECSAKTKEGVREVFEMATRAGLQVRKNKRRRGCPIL
Sequence of Ras (P01112 whole entry): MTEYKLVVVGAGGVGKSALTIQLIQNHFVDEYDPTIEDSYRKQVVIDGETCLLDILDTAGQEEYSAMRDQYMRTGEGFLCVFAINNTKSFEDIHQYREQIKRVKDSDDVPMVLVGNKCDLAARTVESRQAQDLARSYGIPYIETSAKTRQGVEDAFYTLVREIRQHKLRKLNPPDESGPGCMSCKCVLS

`Nc1nc2c(ncn2[C@@H]2O[C@H](COP(=O)(O)OP(=O)(O)O)[C@@H](O)[C@H]2O)c(=O)[nH]1` [GDP]: the Kd at RhoC (setting [1]) was 923 µM; at RhoC (setting [2]), 516 µM; at RhoC (setting [3]), 560 µM; at RhoC (setting [4]), 1000 µM; on Ras (setting [1]), 0.0048 µM; at Ras (setting [2]), 0.0047 µM. Also, the results for the Kd on Ras (setting [3]), on Ras (setting [4]) and at RhoA were 530 µM, 520 µM and 13 µM, respectively.
As to `Nc1nc2nc[nH]c2c(=S)[nH]1` [6-TG, 6-thioguanine], on RhoC C20S, the “activity and total expression of RhoC C20S” value is given as “unchanged”. Further, in the assay on HME-C20S RhoC cells (6-TG alone, three days), the “effect on motility compared with SUM149 and HME-RhoC cells” value is “insignificant”. The “effect on C20S RhoC activity and invasive cell motility” value with HME-C20S RhoC cells (6-TG with a NO donor, compared with either alone) is reported as “lack of a significant effect”. The cell motility result with SUM149 cells (6-TG 1 μM alone, three or more consecutive days) is listed as “gradual but significant diminution of cell motility”. Also, in the assay on SUM149 cells (6-TG 1 μM with DETA/NO (or GSNO) 10 μM, three days), the invasive cell motility entry is reported as “complete termination of the invasive cell motility”.

These data come from patent US8729047B2, “Compositions for inhibiting redox-sensitive GTPases” (Board of Regents, The University of Texas System, priority 2010, dated 2014).
